According to patent US20110082130A1 (LIGAND PHARMACEUTICALS, INC., priority 2006, published 2011):
Like-named read-outs stand apart in the source and are kept apart here.

Molecular target: T1, chimeric human H3 receptor (Homo sapiens, UniProt Q9Y5N1)
T1 construct: made in house; host or cells: Sf9 insect cells (baculovirus); P2 membrane preparation
Assay: Chimeric human H3 receptor screening GTP binding assay (inhibition of histamine-stimulated GTP-gamma35S binding, Example 8)
Assay type: biochemical
Settings: 4 μM of the compound, 1 μM histamine, read-out: percent inhibition of the signal obtained with 1 μM histamine
How it was run: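 Sf9 membranes co-expressing chimeric human H3 receptor and heterotrimeric G-protein, 35 μg per reaction, incubated 60 min at room temperature with 4 μM compound, 1 μM histamine, 10 μM GDP and […] GTP-gamma35S at pH 7.4. Filter-bound radioactivity counted. Result expressed as percent inhibition of the histamine signal after subtracting non-specific binding (10 μM GTP-gammaS).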

T1 sequence (Q9Y5N1 with tags, fused parts or gaps): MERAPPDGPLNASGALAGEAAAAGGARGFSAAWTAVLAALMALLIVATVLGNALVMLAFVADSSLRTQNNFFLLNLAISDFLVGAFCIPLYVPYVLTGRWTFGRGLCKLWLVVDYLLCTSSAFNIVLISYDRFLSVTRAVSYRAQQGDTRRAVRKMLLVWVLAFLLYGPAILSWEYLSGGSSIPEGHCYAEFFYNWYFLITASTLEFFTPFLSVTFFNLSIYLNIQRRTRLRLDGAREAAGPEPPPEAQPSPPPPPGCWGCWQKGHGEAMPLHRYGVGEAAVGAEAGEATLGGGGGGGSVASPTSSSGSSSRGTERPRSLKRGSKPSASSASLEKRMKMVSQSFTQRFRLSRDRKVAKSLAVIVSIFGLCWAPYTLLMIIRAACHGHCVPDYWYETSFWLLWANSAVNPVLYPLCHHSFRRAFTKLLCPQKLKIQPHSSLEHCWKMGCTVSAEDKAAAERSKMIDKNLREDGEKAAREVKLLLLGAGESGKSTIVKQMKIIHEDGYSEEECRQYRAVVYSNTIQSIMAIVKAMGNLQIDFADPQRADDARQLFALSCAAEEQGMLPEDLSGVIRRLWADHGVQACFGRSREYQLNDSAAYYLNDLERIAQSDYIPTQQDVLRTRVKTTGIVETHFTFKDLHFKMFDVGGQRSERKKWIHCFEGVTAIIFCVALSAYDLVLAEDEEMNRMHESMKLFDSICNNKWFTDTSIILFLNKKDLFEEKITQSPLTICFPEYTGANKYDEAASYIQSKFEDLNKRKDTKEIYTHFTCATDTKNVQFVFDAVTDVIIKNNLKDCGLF

Row | SMILES | inhibition at 4 µM ("†" in Ki of Table II) [%] | inhibition at 4 µM (Table II "Ki", symbol †) [%]
1 | CCCCc1ccc(-c2ccc3c(c2)CCN(CC(=O)N2CCN(C4CCCCC4)CC2)C3)cc1 [Compound 453, 6-(4-butylphenyl)-2-[2-(4-cyclohexylpiperazin-1-yl)-2-oxoethyl]-1,2,3,4-tetrahydroisoquinoline] | ≥ 90 | 
2 | O=C(CN1CCc2cc(-c3cccc(F)c3)ccc2C1)N1CCN(C2CCCCC2)CC1 [Compound 412, 2-[2-(4-cyclohexylpiperazin-1-yl)-2-oxoethyl]-6-(3-fluorophenyl)-1,2,3,4-tetrahydroisoquinoline] | ≥ 90 | 
3 | CCc1cccc(-c2ccc3c(c2)CCN(CC(=O)N2CCN(C4CCC4)CC2)C3)c1 [Compound 467, 2-[2-(4-cyclobutylpiperazin-1-yl)-2-oxoethyl]-6-(3-ethylphenyl)-1,2,3,4-tetrahydroisoquinoline] | ≥ 90 | 
4 | CCc1ccc(-c2ccc3c(c2)CCN(CC(=O)N2CCN(C4CCCC4)CC2)C3)cc1 [Compound 460, 2-[2-(4-cyclopentylpiperazin-1-yl)-2-oxoethyl]-6-(4-ethylphenyl)-1,2,3,4-tetrahydroisoquinoline] | ≥ 90 | 
5 | Cc1ccc(-c2ccc3c(c2)CCN(CC(=O)N2CCN(C4CCC4)CC2)C3)cc1F [Compound 426, 2-[2-(4-cyclobutylpiperazin-1-yl)-2-oxoethyl]-6-(3-fluoro-4-methylphenyl)-1,2,3,4-tetrahydroisoquinoline] | ≥ 90 | 
6 | Cc1ccc(-c2ccc3c(c2)CCN(CC(=O)N2CCN(C4CCCCC4)CC2)C3)cc1F [Compound 428, 2-[2-(4-cyclohexylpiperazin-1-yl)-2-oxoethyl]-6-(3-fluoro-4-methylphenyl)-1,2,3,4-tetrahydroisoquinoline] | ≥ 90 | 
7 | CSc1cccc(-c2ccc3c(c2)CCN(CC(=O)N2CCN(C4CCCCC4)CC2)C3)c1 [Compound 496, 2-[2-(4-cyclohexylpiperazin-1-yl)-2-oxoethyl]-6-[3-(methylthio)phenyl]-1,2,3,4-tetrahydroisoquinoline] |  | ≥ 90
8 | Cc1ccc(F)c(-c2ccc3c(c2)CCN(CC(=O)N2CCN(C4CCCCC4)CC2)C3)c1 [Compound 425, 2-[2-(4-cyclohexylpiperazin-1-yl)-2-oxoethyl]-6-(2-fluoro-5-methylphenyl)-1,2,3,4-tetrahydroisoquinoline] | ≥ 90 | 
9 | CSc1cccc(-c2ccc3c(c2)CCN(CC(=O)N2CCN(C(C)C)CC2)C3)c1 [Compound 497, 2-[2-(4-isopropylpiperazin-1-yl)-2-oxoethyl]-6-[3-(methylthio)phenyl]-1,2,3,4-tetrahydroisoquinoline] |  | ≥ 90

Further lines, results first:

Row | inhibition at 4 µM ("†" in Ki of Table II) [%] | inhibition at 4 µM (Table II "Ki", symbol †) [%] | SMILES
10 |  | ≥ 90 | O=C(CN1CCc2cc(-c3ccc(Cl)c(Cl)c3)ccc2C1)N1CCN(C2CCCC2)CC1 [Compound 595, 2-[2-(4-cyclopentylpiperazin-1-yl)-2-oxoethyl]-6-(3,4-dichlorophenyl)-1,2,3,4-tetrahydroisoquinoline]
11 |  | ≥ 90 | O=C(CN1CCc2cc(-c3cccc(F)c3F)ccc2C1)N1CCN(C2CCCC2)CC1 [Compound 600, 2-[2-(4-cyclopentylpiperazin-1-yl)-2-oxoethyl]-6-(2,3-difluorophenyl)-1,2,3,4-tetrahydroisoquinoline]
12 |  | ≥ 90 | CC(C)C(C)N1CCN(C(=O)CN2CCc3cc(-c4cncnc4)ccc3C2)CC1 (centres unmarked) [Compound 607, 2-{2-[4-(1,2-dimethylpropyl)piperazin-1-yl]-2-oxoethyl}-6-pyrimidin-5-yl-1,2,3,4-tetrahydroisoquinoline]
13 |  | ≥ 90 | O=C(CN1CCc2cc(-c3cncnc3)ccc2C1)N1C[C@@H]2C[C@H]1CN2C1CCCC1 (stereo in doubt) [Compound 612, 2-{2-[(1S,4S)-5-cyclopentyl-2,5-diazabicyclo[2.2.1]hept-2-yl]-2-oxoethyl}-6-pyrimidin-5-yl-1,2,3,4-tetrahydroisoquinoline]
14 |  | ≥ 90 | O=C(CN1CCc2cc(-c3cc(F)ccc3F)ccc2C1)N1CCN(C2CCC2)CC1 [Compound 582, 2-[2-(4-cyclobutylpiperazin-1-yl)-2-oxoethyl]-6-(2,5-difluorophenyl)-1,2,3,4-tetrahydroisoquinoline]
